Measurements taken from ChEMBL document CHEMBL5723583, “Data for DCP probe BAY-9835” (2024).

Assays:
[1] = target: Vasopressin V1a receptor (Homo sapiens) (UniProt P37288); assay: Inhibition of Vasopressin V1A at 10.0 µM in the Eurofins-Panlabs selectivity screen; settings: Compound concentration 10.0 uM
[2] = target: Disintegrin and metalloproteinase domain-containing protein 17 (Homo sapiens, UniProt P78536); assay: IC50 of hADAM17 at 1.0 µM in the Bayer in-house protease panel
[3] = target: 72 kDa type IV collagenase (Homo sapiens, UniProt P08253); assay: IC50 of hMMP2 at 1.0 µM in the Bayer in-house protease panel
[4] = target: Matrix metalloproteinase-14 (Homo sapiens, UniProt P50281); assay: IC50 of hMMP14 at 1.0 µM in the Bayer in-house protease panel
[5] = target: Aldo-keto reductase family 1 member B1 (Homo sapiens) (UniProt P15121); assay: Inhibition of Aldose Reductase at 10.0 µM in the Eurofins-Panlabs selectivity screen; settings: Rattus norvegicus; Compound concentration 10.0 uM
[6] = target: Sodium/potassium-transporting ATPase (Sus scrofa) (UniProt P05027+P05024+D2WKD8+D2WKD7+F1ST41); assay: Inhibition of ATPase, Na+/K+, Heart, Pig at 10.0 µM in the Eurofins-Panlabs selectivity screen; type: protein-complex assay; settings: Compound concentration 10.0 uM
[7] = target: Monoamine oxidase A (MAO-A) (Homo sapiens, UniProt P21397); assay: Inhibition of Monoamine Oxidase MAO-A at 10.0 µM in the Eurofins-Panlabs selectivity screen; settings: compound concentration 10 uM
[8] = target: Phosphodiesterase 3 (Homo sapiens) (UniProt Q14432+Q13370); assay: Inhibition of Phosphodiesterase PDE3 at 10.0 µM in the Eurofins-Panlabs selectivity screen; type: protein assay; settings: Compound concentration 10.0 uM
[9] = target: cGMP-specific 3',5'-cyclic phosphodiesterase (Homo sapiens) (UniProt O76074); assay: Inhibition of Phosphodiesterase PDE5 at 10.0 µM in the Eurofins-Panlabs selectivity screen; settings: Compound concentration 10.0 uM
[10] = target: Nitric oxide synthase, inducible (Homo sapiens) (UniProt P35228); assay: Inhibition of Nitric Oxide Synthetase, Inducible (iNOS) at 10.0 µM in the Eurofins-Panlabs selectivity screen; settings: Mus musculus; Compound concentration 10.0 uM
[11] = target: Adenosine receptor A1 (Homo sapiens) (UniProt P30542); assay: Inhibition of Adenosine A1 at 10.0 µM in the Eurofins-Panlabs selectivity screen; settings: Compound concentration 10.0 uM
[12] = target: Alpha-2C adrenergic receptor (Homo sapiens) (UniProt P18825); assay: Inhibition of Adrenergic alpha2C at 10.0 µM in the Eurofins-Panlabs selectivity screen; settings: Compound concentration 10.0 uM
[13] = target: Beta-3 adrenergic receptor (Homo sapiens) (UniProt P13945); assay: Inhibition of Adrenergic beta3 at 10.0 µM in the Eurofins-Panlabs selectivity screen; settings: Compound concentration 10.0 uM
[14] = target: D(2) dopamine receptor (Homo sapiens) (UniProt P14416); assay: Inhibition of Dopamine D2L at 10.0 µM in the Eurofins-Panlabs selectivity screen; settings: Compound concentration 10.0 uM
[15] = target: Sodium-dependent dopamine transporter (Homo sapiens) (UniProt Q01959); assay: Inhibition of Transporter, Dopamine (DAT) at 10.0 µM in the Eurofins-Panlabs selectivity screen; settings: Compound concentration 10.0 uM
[16] = target: Glucocorticoid receptor (Homo sapiens) (UniProt P04150); assay: Inhibition of Glucocorticoid at 10.0 µM in the Eurofins-Panlabs selectivity screen; settings: Compound concentration 10.0 uM
[17] = target: Glutamate NMDA receptor (Rattus norvegicus) (UniProt P35439+Q00959+Q00960+Q00961+Q62645+Q8VHN2+Q9R1M7); assay: Inhibition of Glutamate, NMDA, Agonism at 10.0 µM in the Eurofins-Panlabs selectivity screen; type: protein-complex assay; settings: Compound concentration 10.0 uM
[18] = target: Insulin receptor (Homo sapiens) (UniProt P06213); assay: Inhibition of Insulin at 10.0 µM in the Eurofins-Panlabs selectivity screen; settings: Rattus norvegicus; Compound concentration 10.0 uM
[19] = target: Muscarinic acetylcholine receptor M4 (Homo sapiens) (UniProt P08173); assay: Inhibition of Muscarinic M4 at 10.0 µM in the Eurofins-Panlabs selectivity screen; settings: Compound concentration 10.0 uM
[20] = target: 5-hydroxytryptamine receptor 1A (Homo sapiens) (UniProt P08908); assay: Inhibition of Serotonin (5-Hydroxytryptamine) 5-HT1A at 10.0 µM in the Eurofins-Panlabs selectivity screen; settings: Compound concentration 10.0 uM
[21] = target: 5-hydroxytryptamine receptor 2A (Homo sapiens) (UniProt P28223); assay: Inhibition of Serotonin (5-Hydroxytryptamine) 5-HT2A at 10.0 µM in the Eurofins-Panlabs selectivity screen; settings: Compound concentration 10.0 uM

Chain of Glucocorticoid receptor (Homo sapiens) (P04150 whole entry): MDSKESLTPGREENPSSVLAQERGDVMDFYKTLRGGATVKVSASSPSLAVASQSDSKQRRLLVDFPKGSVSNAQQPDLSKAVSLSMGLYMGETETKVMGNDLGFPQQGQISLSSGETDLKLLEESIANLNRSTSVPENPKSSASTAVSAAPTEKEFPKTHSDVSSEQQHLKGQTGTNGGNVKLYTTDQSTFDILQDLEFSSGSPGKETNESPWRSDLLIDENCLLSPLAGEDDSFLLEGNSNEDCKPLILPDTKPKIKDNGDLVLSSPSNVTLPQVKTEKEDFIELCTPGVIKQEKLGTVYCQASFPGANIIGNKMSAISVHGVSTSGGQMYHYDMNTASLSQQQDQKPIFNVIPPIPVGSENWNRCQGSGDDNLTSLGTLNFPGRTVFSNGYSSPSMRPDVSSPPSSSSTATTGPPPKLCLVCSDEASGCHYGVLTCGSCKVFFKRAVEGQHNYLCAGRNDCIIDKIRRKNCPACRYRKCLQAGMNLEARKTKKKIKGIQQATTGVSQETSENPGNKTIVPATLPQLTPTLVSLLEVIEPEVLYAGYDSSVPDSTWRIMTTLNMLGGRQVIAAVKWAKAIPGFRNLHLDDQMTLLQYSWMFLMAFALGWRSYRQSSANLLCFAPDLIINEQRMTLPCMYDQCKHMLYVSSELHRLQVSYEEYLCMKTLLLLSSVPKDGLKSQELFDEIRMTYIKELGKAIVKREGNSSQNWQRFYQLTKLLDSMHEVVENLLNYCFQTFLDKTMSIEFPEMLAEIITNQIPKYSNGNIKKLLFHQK
Chain of Vasopressin V1a receptor (Homo sapiens) (P37288 whole entry, looked up, the tested form may be a part): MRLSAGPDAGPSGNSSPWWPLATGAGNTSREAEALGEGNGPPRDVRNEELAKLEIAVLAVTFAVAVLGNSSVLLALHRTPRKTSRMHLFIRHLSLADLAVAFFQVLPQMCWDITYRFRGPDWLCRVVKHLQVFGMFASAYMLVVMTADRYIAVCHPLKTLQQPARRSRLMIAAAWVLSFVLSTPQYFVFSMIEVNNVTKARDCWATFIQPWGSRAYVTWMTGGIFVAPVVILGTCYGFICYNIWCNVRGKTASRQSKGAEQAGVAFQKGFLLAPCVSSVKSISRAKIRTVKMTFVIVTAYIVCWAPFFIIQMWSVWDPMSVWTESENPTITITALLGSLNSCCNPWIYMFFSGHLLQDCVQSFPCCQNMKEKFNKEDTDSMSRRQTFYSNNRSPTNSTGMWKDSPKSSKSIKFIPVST
Chain of Insulin receptor (Homo sapiens) (P06213 28-758 limits assumed): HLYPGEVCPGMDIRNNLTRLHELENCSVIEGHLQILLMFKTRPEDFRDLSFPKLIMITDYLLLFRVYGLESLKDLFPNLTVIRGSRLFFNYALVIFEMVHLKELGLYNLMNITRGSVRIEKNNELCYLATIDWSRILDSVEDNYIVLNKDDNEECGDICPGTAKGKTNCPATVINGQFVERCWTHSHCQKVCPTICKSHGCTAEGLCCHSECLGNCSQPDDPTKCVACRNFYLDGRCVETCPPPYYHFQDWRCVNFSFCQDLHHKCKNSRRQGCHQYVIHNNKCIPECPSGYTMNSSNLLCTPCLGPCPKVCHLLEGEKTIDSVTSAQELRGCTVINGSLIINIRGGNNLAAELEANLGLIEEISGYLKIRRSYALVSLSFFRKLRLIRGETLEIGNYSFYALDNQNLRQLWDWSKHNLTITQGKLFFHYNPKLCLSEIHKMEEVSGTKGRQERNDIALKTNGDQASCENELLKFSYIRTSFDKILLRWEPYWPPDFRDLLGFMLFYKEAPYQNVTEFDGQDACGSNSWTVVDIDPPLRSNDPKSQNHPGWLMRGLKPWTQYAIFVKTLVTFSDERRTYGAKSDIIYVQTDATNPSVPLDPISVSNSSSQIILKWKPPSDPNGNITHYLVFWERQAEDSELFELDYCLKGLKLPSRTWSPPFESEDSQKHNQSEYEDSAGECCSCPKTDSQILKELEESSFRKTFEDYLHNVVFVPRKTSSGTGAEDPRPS
Chain of Insulin receptor (Homo sapiens) (P06213 763-1382 limits assumed): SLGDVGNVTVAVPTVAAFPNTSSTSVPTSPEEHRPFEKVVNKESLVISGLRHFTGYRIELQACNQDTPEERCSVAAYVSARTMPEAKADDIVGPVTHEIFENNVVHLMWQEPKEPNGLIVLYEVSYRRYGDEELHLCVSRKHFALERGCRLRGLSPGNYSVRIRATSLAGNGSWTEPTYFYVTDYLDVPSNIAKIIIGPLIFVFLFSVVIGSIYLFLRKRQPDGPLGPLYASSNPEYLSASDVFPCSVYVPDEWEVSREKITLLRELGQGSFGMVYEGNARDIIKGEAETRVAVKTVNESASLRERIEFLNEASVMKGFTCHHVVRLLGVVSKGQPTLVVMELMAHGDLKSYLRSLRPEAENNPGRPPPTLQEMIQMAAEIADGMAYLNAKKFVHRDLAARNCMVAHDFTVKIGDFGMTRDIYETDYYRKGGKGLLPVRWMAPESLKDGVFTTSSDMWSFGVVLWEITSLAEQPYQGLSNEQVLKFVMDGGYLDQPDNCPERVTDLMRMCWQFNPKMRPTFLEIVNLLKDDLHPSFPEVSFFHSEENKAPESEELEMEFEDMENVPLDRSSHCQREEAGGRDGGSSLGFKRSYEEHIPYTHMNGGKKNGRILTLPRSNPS
Chain of 5-hydroxytryptamine receptor 1A (Homo sapiens) (P08908 whole entry): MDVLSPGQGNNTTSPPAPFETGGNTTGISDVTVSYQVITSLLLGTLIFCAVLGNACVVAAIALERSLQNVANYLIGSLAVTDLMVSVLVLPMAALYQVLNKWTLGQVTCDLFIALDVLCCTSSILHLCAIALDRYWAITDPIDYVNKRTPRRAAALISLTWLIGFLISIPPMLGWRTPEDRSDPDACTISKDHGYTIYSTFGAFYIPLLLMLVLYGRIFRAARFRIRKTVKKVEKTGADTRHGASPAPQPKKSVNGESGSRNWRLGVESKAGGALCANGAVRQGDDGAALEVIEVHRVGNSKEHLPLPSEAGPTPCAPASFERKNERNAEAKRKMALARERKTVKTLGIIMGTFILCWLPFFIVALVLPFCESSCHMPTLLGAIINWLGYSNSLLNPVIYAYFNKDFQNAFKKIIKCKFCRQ
Chain of 72 kDa type IV collagenase (P08253 whole entry): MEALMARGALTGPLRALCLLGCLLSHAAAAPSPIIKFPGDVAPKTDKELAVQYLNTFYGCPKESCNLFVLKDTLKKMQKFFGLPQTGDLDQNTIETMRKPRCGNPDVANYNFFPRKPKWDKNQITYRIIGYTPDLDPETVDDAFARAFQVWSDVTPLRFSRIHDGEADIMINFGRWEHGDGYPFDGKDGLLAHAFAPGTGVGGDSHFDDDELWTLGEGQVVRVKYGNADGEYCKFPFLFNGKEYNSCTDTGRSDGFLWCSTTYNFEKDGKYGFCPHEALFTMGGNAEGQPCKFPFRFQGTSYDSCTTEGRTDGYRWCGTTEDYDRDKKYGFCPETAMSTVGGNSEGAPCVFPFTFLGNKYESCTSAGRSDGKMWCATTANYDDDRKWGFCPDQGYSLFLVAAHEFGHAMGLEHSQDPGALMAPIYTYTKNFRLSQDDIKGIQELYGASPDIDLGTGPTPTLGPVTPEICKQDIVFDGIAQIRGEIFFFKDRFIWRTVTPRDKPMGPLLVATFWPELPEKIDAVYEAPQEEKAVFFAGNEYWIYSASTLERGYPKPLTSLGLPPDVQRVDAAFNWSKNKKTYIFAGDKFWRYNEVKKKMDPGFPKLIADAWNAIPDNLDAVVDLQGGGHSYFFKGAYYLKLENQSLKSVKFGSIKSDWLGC
Chain of Alpha-2C adrenergic receptor (Homo sapiens) (P18825 whole entry): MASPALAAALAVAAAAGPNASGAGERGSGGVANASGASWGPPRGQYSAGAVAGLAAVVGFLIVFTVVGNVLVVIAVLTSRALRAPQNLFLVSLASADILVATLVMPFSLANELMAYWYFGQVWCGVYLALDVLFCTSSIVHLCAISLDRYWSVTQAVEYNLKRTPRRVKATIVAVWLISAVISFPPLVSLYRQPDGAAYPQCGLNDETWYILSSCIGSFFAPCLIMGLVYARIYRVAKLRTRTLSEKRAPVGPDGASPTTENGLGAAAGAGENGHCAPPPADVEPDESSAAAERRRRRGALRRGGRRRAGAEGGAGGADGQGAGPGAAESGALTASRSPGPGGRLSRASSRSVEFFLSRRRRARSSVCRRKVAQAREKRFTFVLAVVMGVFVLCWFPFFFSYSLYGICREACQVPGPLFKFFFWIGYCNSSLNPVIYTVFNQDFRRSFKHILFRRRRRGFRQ
Chain of Muscarinic acetylcholine receptor M4 (Homo sapiens) (P08173 whole entry): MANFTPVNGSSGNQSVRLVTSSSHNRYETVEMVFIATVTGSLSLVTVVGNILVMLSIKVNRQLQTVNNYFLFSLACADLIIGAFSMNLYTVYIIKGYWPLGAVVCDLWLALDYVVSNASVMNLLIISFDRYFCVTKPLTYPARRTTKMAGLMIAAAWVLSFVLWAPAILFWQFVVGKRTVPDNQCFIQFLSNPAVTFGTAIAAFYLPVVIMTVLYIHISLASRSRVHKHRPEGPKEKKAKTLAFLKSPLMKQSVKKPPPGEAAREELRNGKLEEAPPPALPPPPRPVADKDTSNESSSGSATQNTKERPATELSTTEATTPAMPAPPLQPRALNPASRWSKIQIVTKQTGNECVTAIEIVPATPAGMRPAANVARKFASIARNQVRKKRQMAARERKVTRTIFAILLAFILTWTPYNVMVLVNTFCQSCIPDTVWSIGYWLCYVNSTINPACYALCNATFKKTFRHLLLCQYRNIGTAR
Chain of D(2) dopamine receptor (Homo sapiens) (P14416 whole entry): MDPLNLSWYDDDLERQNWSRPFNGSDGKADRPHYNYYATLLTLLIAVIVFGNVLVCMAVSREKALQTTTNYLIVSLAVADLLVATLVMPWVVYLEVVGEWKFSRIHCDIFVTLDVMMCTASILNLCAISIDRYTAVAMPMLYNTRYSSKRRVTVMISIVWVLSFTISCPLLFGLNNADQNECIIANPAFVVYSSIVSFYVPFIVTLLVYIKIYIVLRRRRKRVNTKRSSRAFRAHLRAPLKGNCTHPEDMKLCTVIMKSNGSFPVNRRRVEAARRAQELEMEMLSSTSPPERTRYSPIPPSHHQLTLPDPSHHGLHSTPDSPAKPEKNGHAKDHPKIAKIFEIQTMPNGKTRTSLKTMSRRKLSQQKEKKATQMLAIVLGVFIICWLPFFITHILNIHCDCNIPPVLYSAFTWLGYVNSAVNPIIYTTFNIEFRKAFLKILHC

For Cn1nccc1[C@]1(CNC(=O)c2ccc(F)c(F)c2-c2ccc(C(F)(F)F)cc2)NC(=O)NC1=O, the inhibition [1] was 7%, the IC50 [2] was 5.77 µM and the IC50 [3] was greater than 100 µM. The IC50 [4] was greater than 100 µM, the inhibition [5] was -4% and the inhibition [6] was -5%. It also gave an inhibition at 10 µM [7] of 0%, an inhibition [8] of 11% and an inhibition [9] of -5%. It also gave an inhibition [10] of 0%, an inhibition [11] of -4% and an inhibition [12] of -1%. The inhibition [13] was -3%, the inhibition [14] was 2% and the inhibition [15] was 7%. For the same molecule, the inhibition [16] was 3%, the inhibition [17] was 1% and the inhibition [18] was -8%. For the same molecule, the inhibition [19] was -6%, the inhibition [20] was -3% and the inhibition [21] was -7%.
